The results in this text go back to patent US6455472B1, “Phenyl-substituted cyclic enaminones” (Bayer Aktiengesellschaft, priority 1998, dated 2002).

The term melting point denotes the temperature of the solid-liquid transition.

One data set has as its system caterpillars of the army worm (Spodoptera frugiperda). In words: Spodoptera frugiperda test. It counts as in vivo. To be noted: cabbage leaves (Brassica oleracea) dipped into preparation of active compound; concentration and time not stated. As for the experimental part:
Solvent: 7 parts by weight of dimethylformamide
Emulsifier:: 1 part by weight of alkylaryl polyglycol ether
To produce a suitable preparation of active compound, 1 part by weight of active compound is mixed with the stated amounts of solvent and emulsifier, and the concentrate is diluted with water to the desired concentration.
Cabbage leaves (Brassica oleracea) are treated by being dipped into the preparation of active compound of the desired concentration and are populated with caterpillars of the army worm (Spodoptera frugiperda) while the leaves are still moist.
After the desired period of time, the kill in % is determined. 100% means that all caterpillars have been killed; 0% means that none of the caterpillars have been killed.
As to `N#CC(C(=O)c1ccc(Cl)cc1)=C1CCCN1Cc1ccc(Cl)nc1` [Preparation Example 3, 3-(4-chlorophenyl)-2-[1-(6-chloropyridin-3-yl-methyl)-pyrrolidin-2-yli-dene]-3-oxo-propionitrile], the “activity (kill in %) against Spodoptera frugiperda caterpillars” value is “good activity”.

A further data set relates to weeds. In words: Post emergence test, weeds. It counts as in vivo. The settings on record: sprayed, assessed after 3 weeks, application rate not stated. The method, then: (§1) Solvent: 5 parts by weight of acetone
(§2) Emulsifier: 1 part by weight of alkylaryl polyglycol ether
(§3) To produce a suitable preparation of active compound, 1 part by weight of active compound is mixed with the stated amount of solvent, the stated amount of emulsifier is added and the concentrate is diluted with water to the desired concentration.
Test plants which have a height of 5 to 15 cm are sprayed with the preparation of active compound such that the particular desired amounts of active compound are applied per unit area. After 3 weeks, the degree of damage to the plants is assessed in % damage in comparison to the development of the untreated controls.
With `N#C/C(C(=O)c1ccc(-c2ccc(Cl)cc2)cc1)=C1\CCCCN1` [I-1-a-54, 3-(4′-chloro-biphenyl-4-yl)-3-oxo-2-piperidin-2-ylidene-propionitrile], the “activity against weeds (% damage)” value is recorded as “strong activity”.

Another data set has as its system weeds. The data set can be described thus: Pre-emergence test, weeds. The settings on record: soil watered 24 hours after sowing, assessed after three weeks, application rate not stated. It counts as in vivo. The method, then: as §1, §2, §3
Seeds of the test plants are sown in normal soil and, after 24 hours, watered with the preparation of active compound. The amount of water per unit area is advantageously kept constant. The concentration of active compound in the preparation is immaterial, only the active compound application rate per unit area matters. After three weeks, the degree of damage to the plants is assessed in % damage in comparison with the development of the untreated control.
With `N#C/C(C(=O)c1ccc(-c2ccc(Cl)cc2)cc1)=C1\CCCCN1` [I-1-a-54, 3-(4′-chloro-biphenyl-4-yl)-3-oxo-2-piperidin-2-ylidene-propionitrile], the “activity against weeds (% damage)” value is “strong activity”.

System in the next data set: not given
Assay: not given
Conditions: not given
In the case of `CCOC(=O)C1CC/C(=C(\C#N)C(=O)c2ccccc2Cl)N1` (stereo not drawn) [I-1-d-4], the melting point lay in the range of 222 to 224 °C. `N#C/C(C(=O)c1ccc(Cl)cc1)=C1\CCCN1` [Example 1, 3-(4-chlorophenyl)-3-oxo-2-pyrrolidin-2-ylidene-propionitrile] registered a melting point of 156 to 158 °C.

In the case of `CN1CCC/C1=C(\C#N)C(=O)c1ccc(Cl)cc1` [I-1-a-110, 3-(4-chloro-phenyl)-3-oxo-2-(1-methyl-pyrrolidin-2-ylidene)-propionitrile], the melting point was found to be 115 °C. In the case of `COC(=O)CSc1ccc(C(=O)/C(C#N)=C2/CCCCN2)cn1` [I-2-a-6], the melting point was 146 °C. For the compound `N#C/C(C(=O)c1ccc(SCC(=O)O)nc1)=C1\CCCCN1` [I-2-a-7], the melting point turned out to be 155 °C. `N#C/C(C(=O)c1ccc(NS(=O)(=O)C(F)(F)F)cc1)=C1\CCCCN1` [I-1-a-138, 3-[4-(trifluoromethanesulphonylamino)-phenyl]-3-oxo-2-piperidin-2-ylidene-propionitrile] yielded a melting point of 197 °C.

`N#C/C(C(=O)c1ccc(-c2ccc(Cl)cc2)cc1)=C1\CCCCN1` [I-1-a-54, 3-(4′-chloro-biphenyl-4-yl)-3-oxo-2-piperidin-2-ylidene-propionitrile] had a melting point of 134 °C. The compound `CCOC(=O)C1CC/C(=C(\C#N)C(=O)c2ccc(Cl)cc2)N1` (centres unmarked) [Example 7, ethyl 5-[2-(4-chloro-phenyl)-1-cyano-2-oxo-ethylidene]-pyrrolidine-2-carboxylate] displayed a melting point of 108 to 110 °C. The compound `N#C/C(C(=O)c1ccc(Cl)cc1)=C1\CCC(C(=O)O)N1` (centres unmarked) [Example 8, 5-[2-(4-chloro-phenyl)-1-cyano-2-oxo-ethylidene]-pyrrolidine-2-carboxylic acid] had a melting point of 134 to 136 °C.

The compound `N#C/C(C(=O)c1ccc(Cl)cc1)=C1\CCCN1C(=O)c1ccc(Cl)cc1` [Example 5, 2-[1-(4-chlorobenzoyl)pyrrolidin-2-ylidene]-3-(4-chlorophenyl)-3-oxo-propionitrile] had a melting point of 218 °C. In turn, `N#C/C(C(=S)c1ccc(Cl)cc1)=C1\CCCCN1` [I-1-a-151, 3-(4-chloro-phenyl)-3-thio-2-piperidin-2-ylidene-propionitrile] yielded a melting point of 137 °C.
